Laboratory results from article PMC9942197, “Mechanistic Insights into the Ene-Reductase-Catalyzed Promiscuous Reduction of Oximes to Amines” (ACS Catalysis, 2023).
Values belong to the molecule of their own block, whether it stands above or below them.

What was measured:
XenA [1] = target: T1, XenA (Pseudomonas putida, UniProt Q9R9V9); experiment: stopped-flow pre-steady-state kinetics, reductive half-reaction; assay type: biochemical; details: read-out: Kd NADPH; reductive half-reaction of oxidized enzyme
T1 construct: recombinant purified FMN ene-reductase, His-tagged (position differs from earlier reports)
Excerpt: stopped-flow pre-steady-state kinetics, reductive half-reaction on XenA

XenA [2] = target: T1, XenA; experiment: stopped-flow pre-steady-state kinetics, oxidative half-reaction; assay type: biochemical; details: oxidative half-reaction of reduced enzyme; read-out: Kd oxime
Excerpt: stopped-flow pre-steady-state kinetics, oxidative half-reaction on XenA

OPR3 [3] = target: T2, OPR3 (Solanum lycopersicum, UniProt Q9FEW9); experiment: X-ray crystal structure; assay type: binding; details: active site, oxidized flavin
T2 construct: recombinant purified FMN ene-reductase; construct details in supplement

OPR3 [4] = target: T2, OPR3; experiment: stopped-flow pre-steady-state kinetics, oxidative half-reaction; assay type: biochemical; details: oxidative half-reaction of reduced enzyme; read-out: Kd oxime
Excerpt: (§1) stopped-flow pre-steady-state kinetics, oxidative half-reaction on OPR3

OPR3 [5] = target: T3, OPR3 (Solanum lycopersicum, UniProt Q9FEW9, Y190F); experiment: as above; assay type: biochemical; details: oxidative half-reaction of reduced enzyme; read-out: Kd oxime
T3 construct: recombinant purified FMN ene-reductase; construct details in supplement
Excerpt: as §1

OPR3 [6] = target: T4, OPR3 (Solanum lycopersicum, UniProt Q9FEW9, Y370F); experiment: as above; assay type: biochemical; details: oxidative half-reaction of reduced enzyme; read-out: Kd oxime
T4 construct: recombinant purified FMN ene-reductase; construct details in supplement
Excerpt: as §1

XenA [7] = target: T1, XenA; experiment: X-ray crystal structure; assay type: binding; details: active site, oxidized flavin

T1 sequence (Q9R9V9 entry or part of it): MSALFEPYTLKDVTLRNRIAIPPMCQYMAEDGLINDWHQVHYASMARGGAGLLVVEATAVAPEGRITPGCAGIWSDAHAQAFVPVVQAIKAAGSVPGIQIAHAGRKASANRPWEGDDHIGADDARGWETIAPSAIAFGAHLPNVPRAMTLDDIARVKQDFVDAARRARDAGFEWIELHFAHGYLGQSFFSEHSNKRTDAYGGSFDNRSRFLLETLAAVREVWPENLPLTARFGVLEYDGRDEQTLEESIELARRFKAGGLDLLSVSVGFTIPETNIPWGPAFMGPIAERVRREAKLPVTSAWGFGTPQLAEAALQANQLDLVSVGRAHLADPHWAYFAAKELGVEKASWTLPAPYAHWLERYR
T2 sequence (Q9FEW9 whole entry): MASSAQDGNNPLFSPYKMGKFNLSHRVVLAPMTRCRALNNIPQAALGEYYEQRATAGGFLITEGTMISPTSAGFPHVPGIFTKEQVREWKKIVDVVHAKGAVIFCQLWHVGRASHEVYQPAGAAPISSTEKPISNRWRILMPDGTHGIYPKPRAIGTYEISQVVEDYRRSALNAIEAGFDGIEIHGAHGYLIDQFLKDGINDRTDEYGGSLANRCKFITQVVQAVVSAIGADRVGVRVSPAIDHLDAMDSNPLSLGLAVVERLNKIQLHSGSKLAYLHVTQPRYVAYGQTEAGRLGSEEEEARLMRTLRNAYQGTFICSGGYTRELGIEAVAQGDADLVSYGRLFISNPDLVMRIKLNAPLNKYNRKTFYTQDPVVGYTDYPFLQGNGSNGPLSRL
T4 sequence (Q9FEW9 whole entry Y370F): as the sequence (Q9FEW9 whole entry) above, with Y370F counted along it
T3 sequence (Q9FEW9 whole entry Y190F): as the sequence (Q9FEW9 whole entry) above, with Y190F counted along it

- Kd (XenA [1]): 109 ± 5.1 µM
Structure (SMILES): NC(=O)C1=CN([C@@H]2O[C@H](COP(=O)(O)OP(=O)(O)OC[C@H]3O[C@@H](n4cnc5c(N)ncnc54)[C@H](OP(=O)(O)O)[C@@H]3O)[C@@H](O)[C@H]2O)C=CC1 [NADPH]

- Kd (XenA [2]): 6430 ± 1570 µM
- X-ray crystal structure (OPR3 [3]): (c) OPR3/1b.
Structure (SMILES): CCOC(=O)C(=NO)C(=O)CC [1b, oxime 1b]

- Kd (OPR3 [4]): 79 ± 4 µM
- Kd (OPR3 [5]): 69 ± 4 µM
- Kd (OPR3 [6]): 37.4 ± 4.4 µM
- X-ray crystal structure (XenA [7]): (b) XenA/1a.
Structure (SMILES): CCOC(=O)C(=NO)C(C)=O [1a, oxime 1a]
